One data set concerns adult zebrafish. Further details: method as in Marchant and Farrell, 2019. To be noted: intraperitoneal injection, depending on test temperatures, ref Marchant and Farrell, 2019; cited from earlier work.
Data set [1] deals with developing zebrafish embryos. Kind of data set: Antisense morpholino knockdown: heart rate of zebrafish embryos. To be noted: 200 μM MO into 1-cell embryos. Format: in vivo, zebrafish (Danio rerio). How it is done: The heart rate of zebrafish embryos was measured under an Olympus MVX10 microscope at room temperature. After zebrafish embryos were acclimated to the new environment (room temperature, light), heart rate was counted by eye.
(§1) Morpholino antisense oligos (MO) were purchased from Gene Tools (Philomath, OR, United States) ([Fujii et al., 2020]). Zebrafish 1-cell embryos were injected with approximately 5 nL of MO solution at a concentration of 200 μM (approximately 10 ng/embryo).
Since DrHCN4 and DrHCN4L have similar sensitivities to the HCN inhibitors, individual gene knockdowns would be required for evaluating each channel’s role in heart rate regulation. Before knocking down each gene, we first confirmed that both HCN4 channels (DrHCN4 and DrHCN4L) were expressed in day 1, day 3, and day 7 embryos and in the heart and brain of adult fish (Figure 6A). We next investigated whether the knockdown of each gene affects heart rate in zebrafish. The expression of each gene was knocked down by using antisense morpholino (MO), which is commonly used in zebrafish ([Blum et al., 2015]; [Jou et al., 2017]; [Fujii et al., 2020]). MO solutions were injected into 1-cell embryos of zebrafish. […] Embryos were injected with control MO, DrHCN4 MO, and DrHCN4L MO at concentrations of 200 μM or with a mixture of DrHCN4 MO and DrHCN4L MO (200 μM for each). At 24 h after injection of MO, there was a slight decrease of heart rate in embryos injected with DrHCN4 MO (44 ± 2 bpm, p = 0.049) and DrHCN4L MO (45 ± 2 bpm, p = 0.092) compared to the heart rate in embryos injected with control MO (54 ± 1 bpm). […] After 48 h, heart rate was considerably lower in all three groups compared to that in the control group (135 ± 4 bpm): DrHCN4 MO (110 ± 3 bpm, p < 0.001), DrHCN4L MO (111 ± 1 bpm, p = 0.001), and mixture of DrHCN4 MO and DrHCN4L MO (116 ± 7 bpm, p = 0.014). However, at 72 h after MO injection, heart rate in all three groups had returned to the same level as that in the control group (145 ± 5 bpm): DrHCN4 MO (136 ± 3 bpm, p = 0.509), DrHCN4L MO (141 ± 5 bpm, p = 0.921), and mixture of DrHCN4 MO and DrHCN4L MO (147 ± 7 bpm, p = 0.991) (Figure 6B and Table 6).
(§2) FIGURE 6 Effects of HCN4 channel knockdown on zebrafish. (A) Expression of DrHCN4 and DrHCN4L in one (1), three (3), and seven (7) day embryos/larvae as well as in the heart (H) and brain (B) of adult fish was confirmed by RT-PCR. Arrows indicate the DNA ladder markers of 1,000 bp and 500 bp. (B) Heart rates at 24, 48, and 72 h are shown in bar graphs for 200 μM MO-injected zebrafish embryos: control MO (n = 20), DrHCN4 MO (n = 10), DrHCN4L MO (n = 10), and mixed DrHCN4 and DrHCN4L MO (n = 10). Statistical analysis was performed by Dunnett’s test. (C) Representative examples of zebrafish injected with control MO, DrHCN4 MO, DrHCN4L MO, and mixed DrHCN4 and DrHCN4L MO. […] Bar, 200 μm. (D) Ratios of normal embryos, pericardial edema, and death at 48 h after injection of 200 µM MO: control MO (n = 136), DrHCN4 MO (n = 75), DrHCN4L MO (n = 34), and mixed DrHCN4 and DrHCN4L MO (n = 30). (E) Pericardial edema and death ratios at 72 h after injection of 200 µM MO. Control MO (n = 136), DrHCN4 MO (n = 75), DrHCN4L MO (n = 34), and mixed DrHCN4 and DrHCN4L MO (n = 30).

In data set [2] the test system is developing zebrafish embryos. The data set is described as above. Format: in vivo, zebrafish (Danio rerio). To be noted: Supplementary Figure S2, 52 hpf.
The test system of a further data set is zebrafish embryos. Kind of data set: Incidence of pericardial edema in MO-injected zebrafish embryos. To be noted: embryos surviving first 24 h. Format: in vivo, zebrafish (Danio rerio). How it is done: as §1, §2
Pericardial edema is often observed in embryonic zebrafish with heart failure ([Narumanchi et al., 2021]). We determined the incidence of edema in zebrafish injected with 200 μM MO. We only examined zebrafish embryos that survived for the first 24 h after MO injection, and the rates of edema occurrence were determined at 48 and 72 h after injection. […] After 72 h, the proportions of embryos with edema increased to 79, 94, and 87% (Figure 6E).

The mark [3] stands for this setting: 48 h after injection of 200 μM MO.
Setting [4] is: 72 h after injection of 200 μM MO.

In the case of `COc1ccc(CCN(C)CCCN2CCc3cc(OC)c(OC)cc3CC2=O)cc1OC` [zatebradine], the “Reduction of maximum heart rate” value in the data set on adult zebrafish is listed as 38–65%.

On to “5′-CCTCTTACCTCAGTTACAATTTATA -3′ [Control MO]”, for which the Heart rate in data set [1] (24 h after MO injection) was 54 ± 1 bpm; in data set [1] (48 h after MO injection), 135 ± 4 bpm; in data set [1] (72 h after MO injection) it was 145 ± 5 bpm. For the same molecule, in data set [2], the “Effect of injection on heart rate” value is “did not affect heart rate”.

On to “5′-GGCGACGCTGGCTGAAAAATAGGTC -3′ (all phosphorodiamidate morpholino (PMO)) [DrHCN4L MO, Morpholino antisense oligo against DrHCN4L (Gene Tools)]”, for which the results for the Heart rate in data set [1] (24 h after MO injection), in data set [1] (48 h after MO injection) and in data set [1] (72 h after MO injection) were 45 ± 2 bpm, 111 ± 1 bpm and 141 ± 5 bpm, respectively. Also, the results for the “Embryos showing pericardial edema” value in the data set on zebrafish embryos (setting [3]) and in the data set with zebrafish embryos (setting [4]) were 62% and 94%, respectively.

With “5′-GTAATTACTGCCACCGTGCACCACA-3′ (all phosphorodiamidate morpholino (PMO)) [DrHCN4 MO, Morpholino antisense oligo against DrHCN4 (Gene Tools)]”, the values for the Heart rate in data set [1] (24 h after MO injection), in data set [1] (48 h after MO injection) and in data set [1] (72 h after MO injection) were 44 ± 2 bpm, 110 ± 3 bpm and 136 ± 3 bpm, respectively. Moreover, the “Embryos showing pericardial edema” value in the data set on zebrafish embryos (setting [3]) stood at 59%; in the data set on zebrafish embryos (setting [4]) it was 79%.

These data come from paper PMC9281569, “Two HCN4 Channels Play Functional Roles in the Zebrafish Heart” (Frontiers in Physiology, 2022).
